# According to patent publication US20080227853A1, “ANDROGENE MEMBRANE RECEPTOR AGONIST” (BIONATURE E. A. LIMITED, priority 2007, published 2008):
# Tested on: T47D human breast cancer cells
# Assay: Actin cytoskeleton modification in T47D cells (rhodamine-phalloidin staining)
# Assay type: cell-based
# Conditions: T47D cells incubated 24 hours, FIG. 3
row,Compound,modifications of the actin cytoskeleton
1,catechin,polymerization and sub-membrane redistribution
2,Oc1cc(O)c2c(c1)O[C@H](c1ccc(O)c(O)c1)[C@H](O)[C@H]2c1c(O)cc2c(c1O)C[C@@H](O)[C@@H](c1ccc(O)c(O)c1)O2 [B5],polymerization and sub-membrane redistribution
3,Oc1cc(O)c2c(c1)O[C@H](c1ccc(O)c(O)c1)[C@H](O)[C@H]2c1c(O)cc(O)c2c1O[C@H](c1ccc(O)c(O)c1)[C@H](O)C2 [B2],polymerization and sub-membrane redistribution
